# Reference: US11339157B1, “4H-pyrrolo[3,2-c]pyridin-4-one derivatives” (Bayer Aktiengesellschaft, priority 2017, dated 2022)
# How the values were obtained:
# Ba/F3-EGFR-insSVD cells = assay: Proliferation assay in BA/F3 (ins SVD) cells (Cell Titer-Glo); assay type: cell-based; conditions: Mus musculus
# Protocol: (§1) Cellular Data Description (WT, insSVD, Ins ASV)
# (§2) Plates were incubated at 37° C. for 48 h. Retrovirus was harvested by filtering the media supernatant through a 0.45 μm filter.
# (§3) Ba/F3 cells purchased from DSMZ were grown in RPMI+10% FBS+10 ng/mL IL-3 and infected with filtered retroviral supernatant at a 1:2 dilution. Polybrene was added to a concentration of 8 μg/mL, plates were spun for 90 min, and incubated overnight at 37° C. 2 μg/mL puromycin was added to the infected cells 24 h after infection and cells were continually grown in the presence of puromycin and 10 ng/mL IL-3. Following stably expressing Ba/F3 cell lines were generated: Ba/F3-EGFR-WT, Ba/F3-EGFR-insSVD.
# (§4) The cells ectopically expressing WT EGFR were plated with 10 ng/mL Millipore Culture grade EGF. The cells ectopically expressing EGFR-insSVD were plated without EGF.
# (§5) 100 nL of compound was added to each well using a 100 nL pin head, and plates were incubated at 37° C. for 48 h.
# (§6) Cell viability was measured by adding 30 μL of Cell Titer-Glo Luminescent Cell Viability Reagent. Plates were sealed with Perkin Elmer Top-Seal, inverted several times to mix, and immediately centrifuged at 1000 rpm for 2 min. Plates were incubated in low light conditions for 8-10 min and luminescence was measured.
# [1] = biological target: EGFR ins SVD (insertion of SVD between D770 and N771) (Homo sapiens, UniProt P00533, INS767SVD); assay: Exon 20-Mutant-EGFR(D770_N771insSVD) kinase assay (TR-FRET); assay type: biochemical; conditions: Table 9; read-out: mutEGFR (D770_N771insSVD) kinase assay IC50
# Chain of EGFR ins SVD (insertion of SVD between D770 and N771) (P00533 with tags, fused parts or gaps INS767SVD limits assumed): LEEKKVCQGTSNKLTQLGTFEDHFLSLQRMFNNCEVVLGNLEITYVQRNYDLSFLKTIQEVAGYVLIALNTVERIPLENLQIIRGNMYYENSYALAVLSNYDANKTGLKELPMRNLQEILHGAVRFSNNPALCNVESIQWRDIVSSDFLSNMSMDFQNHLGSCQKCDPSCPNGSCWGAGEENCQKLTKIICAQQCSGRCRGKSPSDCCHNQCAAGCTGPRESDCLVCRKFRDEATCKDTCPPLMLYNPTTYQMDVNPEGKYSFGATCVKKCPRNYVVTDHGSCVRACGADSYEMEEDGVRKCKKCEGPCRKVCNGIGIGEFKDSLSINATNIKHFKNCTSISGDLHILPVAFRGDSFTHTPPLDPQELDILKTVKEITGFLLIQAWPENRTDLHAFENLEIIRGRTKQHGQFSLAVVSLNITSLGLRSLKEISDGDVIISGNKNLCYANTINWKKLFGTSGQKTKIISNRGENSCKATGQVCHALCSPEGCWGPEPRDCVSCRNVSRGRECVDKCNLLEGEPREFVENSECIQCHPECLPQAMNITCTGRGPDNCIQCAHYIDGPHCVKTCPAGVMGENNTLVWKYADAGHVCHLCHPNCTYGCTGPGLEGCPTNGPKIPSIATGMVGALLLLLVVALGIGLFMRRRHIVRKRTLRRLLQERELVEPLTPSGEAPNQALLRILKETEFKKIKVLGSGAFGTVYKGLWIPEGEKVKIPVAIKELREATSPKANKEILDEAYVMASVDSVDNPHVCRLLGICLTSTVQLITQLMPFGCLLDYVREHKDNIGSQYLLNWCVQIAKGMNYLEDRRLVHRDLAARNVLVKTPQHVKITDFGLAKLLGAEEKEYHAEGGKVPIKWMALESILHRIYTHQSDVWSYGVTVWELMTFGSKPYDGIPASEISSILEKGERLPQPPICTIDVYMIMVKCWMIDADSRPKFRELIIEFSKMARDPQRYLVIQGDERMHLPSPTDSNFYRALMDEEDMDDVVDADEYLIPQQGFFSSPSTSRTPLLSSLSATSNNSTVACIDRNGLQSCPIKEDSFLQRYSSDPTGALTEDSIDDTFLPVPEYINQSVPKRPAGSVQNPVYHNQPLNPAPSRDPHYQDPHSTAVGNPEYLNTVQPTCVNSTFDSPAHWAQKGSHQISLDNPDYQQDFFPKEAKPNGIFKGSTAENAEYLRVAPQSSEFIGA
# Ba/F3-EGFR-WT cells = assay: Proliferation assay in BA/F3 (wild type) cells (Cell Titer-Glo); assay type: cell-based; conditions: Mus musculus
# Protocol: as §1, §2, §3, §4, §5, §6
# [2] = BaF3, 48 h, Table 10, plated without EGF
# [3] = BaF3, 48 h, Table 10, plated with 10 ng/mL EGF
# [4] = BaF3, Table 10, plated without EGF, 48 h
# [5] = BaF3, Table 10, plated with 10 ng/mL EGF, 48 h
Structure (SMILES),IC50 (Ba/F3-EGFR-insSVD cells; [2]) [nM],IC50 [1] [nM],IC50 (Ba/F3-EGFR-WT cells; [3]) [nM],IC50 (Ba/F3-EGFR-insSVD cells; [4]) [nM],IC50 (Ba/F3-EGFR-WT cells; [5]) [nM]
"COCCOc1cnccc1-c1[nH]c2c(c1Nc1cccc(Cl)c1Cl)C(=O)NCC2 [Example 46, 3-(2,3-dichloroanilino)-2-[3-(2-methoxyethoxy)pyridin-4-yl]-1,5,6,7-tetrahydro-4H-pyrrolo[3,2-c]pyridin-4-one]",15.1,0.0912,364,,
"COCCOc1cnccc1-c1[nH]c2c(c1Nc1ccccc1C(F)(F)F)C(=O)NCC2 [Example 47, 2-[3-(2-methoxyethoxy)pyridin-4-yl]-3-[2-(trifluoromethyl)anilino]-1,5,6,7-tetrahydro-4H-pyrrolo[3,2-c]pyridin-4-one]",448,0.169,3240,,
"COc1c(Cl)cccc1Nc1c(-c2ccncc2OC[C@@H]2CCCN2C)[nH]c2c1C(=O)NCC2 [Example 48, 3-(3-chloro-2-methoxyanilino)-2-(3-{[(2S)-1-methylpyrrolidin-2-yl]methoxy}pyridin-4-yl)-1,5,6,7-tetrahydro-4H-pyrrolo[3,2-c]pyridin-4-one]",5.59,0.358,276,,
"Cc1c(F)cccc1Nc1c(-c2ccncc2OC[C@@H]2CCCN2C)[nH]c2c1C(=O)NCC2 [Example 49, 3-(3-fluoro-2-methylanilino)-2-(3-{[(25)-1-methylpyrrolidin-2-yl]methoxy}pyridin-4-yl)-1,5,6,7-tetrahydro-4H-pyrrolo[3,2-c]pyridin-4-one]",,0.518,,19.1,919
"CN1CCC[C@H]1COc1cnccc1-c1[nH]c2c(c1Nc1cccc(Cl)c1OC(F)F)C(=O)NCC2 [Example 50, 3-[3-chloro-2-(difluoromethoxy)anilino]-2-(3-{[(2S)-1-methylpyrrolidin-2-yl]methoxy}pyridin-4-yl)-1,5,6,7-tetrahydro-4H-pyrrolo[3,2-c]pyridin-4-one]",60.9,1.26,2100,,
"Cc1c(F)cc(F)cc1Nc1c(-c2ccncc2OC[C@@H]2CCCN2C)[nH]c2c1C(=O)NCC2 [Example 51, 3-(3,5-difluoro-2-methylanilino)-2-(3-{[(2S)-1-methylpyrrolidin-2-yl]methoxy}pyridin-4-yl)-1,5,6,7-tetrahydro-4H-pyrrolo[3,2-c]pyridin-4-one]",,0.732,,107,3290
"Cc1c(Cl)cccc1Nc1c(-c2ccncc2OCCN(C)C)[nH]c2c1C(=O)NCC2 [Example 52, 3-(3-chloro-2-methylanilino)-2-{3[2-(dimethylamino)ethoxy]pyridin-4-yl}1,5,6,7-tetrahydro-4H-pyrrolo[3,2-c]pyridin-4-one]",29.1,0.55,834,,
"COc1c(F)cccc1Nc1c(-c2ccncc2OCCN(C)C)[nH]c2c1C(=O)NCC2 [Example 53, 2-{3-[2-(dimethylamino)ethoxy]pyridin-4-yl}-3-(3-fluoro-2-methoxyanilino)-1,5,6,7-tetrahydro-4H-pyrrolo[3,2-c]pyridin-4-one]",31.1,0.332,804,,
"COc1c(Cl)cccc1Nc1c(-c2ccncc2OCCN(C)C)[nH]c2c1C(=O)NCC2 [Example 54, 3-(3-chloro-2-methoxyanilino)-2-{3-[2-(dimethylamino)ethoxy]pyridin-4-yl}-1,5,6,7-tetrahydro-4H-pyrrolo[3,2-c]pyridin-4-one]",37.5,0.912,1300,,
"Cc1c(F)cc(F)cc1Nc1c(-c2ccncc2OCCN(C)C)[nH]c2c1C(=O)NCC2 [Example 55, 3-(3,5-difluoro-2-methylanilino)-2-{3-[2-(dimethylamino)ethoxy]pyridin-4-yl}-1,5,6,7-tetrahydro-4H-pyrrolo[3,2-c]pyridin-4-one]",303,0.465,2830,,
"Cc1c(F)cccc1Nc1c(-c2ccncc2OCCN(C)C)[nH]c2c1C(=O)NCC2 [Example 56, 2-{3-[2-(dimethylamino)ethoxy]pyridin-4-yl}-3-(3-fluoro-2-methylanilino)-1,5,6,7-tetrahydro-4H-pyrrolo[3,2-c]pyridin-4-one]",242,0.562,1900,,
"COc1c(F)cccc1Nc1c(-c2ccncc2OCCC(C)(C)OC)[nH]c2c1C(=O)NCC2 [Example 57, 3-(3-fluoro-2-methoxyanilino)-2-[3-(3-methoxy-3-methylbutoxy)pyridin-4-yl]1,5,6,7-tetrahydro-4H-pyrrolo[3,2-c]pyridin-4-one]",14.7,0.228,535,,
"CCOC(C)(C)COc1cnccc1-c1[nH]c2c(c1Nc1cccc(F)c1OC)C(=O)NCC2 [Example 58, 2-[3-(2-ethoxy-2-methylpropoxy)pyridin-4-yl]-3-(3-fluoro-2-methoxyanilino)-1,5,6,7-tetrahydro-4H-pyrrolo[3,2-c]pyridin-4-one]",18.6,0.113,561,,
"COc1c(Cl)cccc1Nc1c(-c2ccncc2OCC(C)(C)O)[nH]c2c1C(=O)NCC2 [Example 59, 3-(3-chloro-2-methoxyanilino)-2-[3-(2-hydroxy-2-methylpropoxy)pyridin-4-yl]-1,5,6,7-tetrahydro-4H-pyrrolo[3,2-c]pyridin-4-one]",17.7,< 0.0725,542,,
"Cc1c(Cl)cccc1Nc1c(-c2ccncc2OCC(C)(C)N(C)C)[nH]c2c1C(=O)NCC2 [Example 60, 3-(3-chloro-2-methylanilino)-2-{3-[2-(dimethylamino)-2-methylpropoxy]pyridin-4-yl}-1,5,6,7-tetrahydro-4H-pyrrolo[3,2-c]pyridin-4-one]",38.6,0.695,1750,,
"Cc1c(F)cccc1Nc1c(-c2ccncc2OCC(C)(C)N(C)C)[nH]c2c1C(=O)NCC2 [Example 61, 2-{3-[2-(dimethylamino)-2-methylpropoxy]pyridin-4-yl}-3-(3-fluoro-2-methylanilino)-1,5,6,7-tetrahydro-4H-pyrrolo[3,2-c]pyridin-4-one]",88.9,1.12,1460,,
"Cc1c(F)cc(F)cc1Nc1c(-c2ccncc2OCC(C)(C)N(C)C)[nH]c2c1C(=O)NCC2 [Example 62, 3-(3,5-difluoro-2-methylanilino)-2-{3-[2-(dimethylamino)-2-methylpropoxy]pyridin-4-yl}-1,5,6,7-tetrahydro-4H-pyrrolo[3,2-c]pyridin-4-one]",166,0.663,2760,,
"COc1c(Cl)cccc1Nc1c(-c2ccncc2OCC2CCCCN2C)[nH]c2c1C(=O)NCC2 (stereo not drawn) [Example 63, 3-(3-chloro-2-methoxyanilino)-2-(3-{[1-methylpiperidin-2-yl]methoxy}pyridin-4-yl)-1,5,6,7-tetrahydro-4H-pyrrolo[3,2-c]pyridin-4-one]",12.3,0.509,485,,
"CN(C)CCOc1cnccc1-c1[nH]c2c(c1Nc1cccc(F)c1OC(F)F)C(=O)NCC2 [Example 64, 3-[2-(difluoromethoxy)-3-fluoroanilino]-2-{3-[2-(dimethylamino)ethoxy]pyridin-4-yl}-1,5,6,7-tetrahydro-4H-pyrrolo[3,2-c]pyridin-4-one]",121,0.443,1890,,
COc1c(Cl)cccc1Nc1c(-c2ccncc2OCC2CCCCO2)[nH]c2c1C(=O)NCC2 (stereo not drawn) [Example 68],2.94,0.115,109,,
"O=C1NCCc2[nH]c(-c3ccncc3OCC3CCCCO3)c(Nc3cccc(Cl)c3Cl)c21 (stereo not drawn) [Example 69, 3-(2,3-dichloroanilino)-2-{3-[(oxan-2-yl)methoxy]pyridin-4-yl}-1,5,6,7-tetrahydro-4H-pyrrolo[3,2-c]pyridin-4-one]",12.4,0.106,290,,
"O=C1NCCc2[nH]c(-c3ccncc3OC[C@@H]3CCCO3)c(Nc3cccc(Cl)c3Cl)c21 [Example 70, 3-(2,3-dichloroanilino)-2-(3-{[(2S)-oxolan-2-yl]methoxy}pyridin-4-yl)-1,5,6,7-tetrahydro-4H-pyrrolo[3,2-c]pyridin-4-one]",16.1,0.0918,297,,
"CN1CCC[C@H]1COc1cnccc1-c1[nH]c2c(c1Nc1cccc(Cl)c1Cl)C(=O)NCC2 [Example 71, 3-(2,3-dichloroanilino)-2-(3-{[(2S)-1-methylpyrrolidin-2-yl]methoxy}pyridin-4-yl)-1,5,6,7-tetrahydro-4H-pyrrolo[3,2-c]pyridin-4-one]",20.2,0.258,781,,
"COc1c(F)cccc1Nc1c(-c2ccncc2OCC(C)(C)O)[nH]c2c1C(=O)NCC2 [Example 72, 3-(3-fluoro-2-methoxyanilino)-2-[3-(2-hydroxy-2-methylpropoxy)pyridin-4-yl]-1,5,6,7-tetrahydro-4H-pyrrolo[3,2-c]pyridin-4-one]",67.7,0.144,1010,,
